The values that follow are results of earlier work, collected in paper PMC7395068, “The evolution of strategies to minimise the risk of human drug-induced liver injury (DILI) in drug discovery and development” (Archives of Toxicology, 2020).

Where two headings read alike, the source gives them in different places. Where a SMILES comes first, the peptide text is derived from it. [ ]: non-standard residue; d: D form. dPhe(4-Cl) = N[C@H](Cc1ccc(Cl)cc1)C(=O)O; d2Nal = N[C@H](Cc1ccc2ccccc2c1)C(=O)O; dCit = NC(=O)NCCC[C@@H](N)C(=O)O; d3Pal = N[C@H](Cc1cccnc1)C(=O)O

For this data set the following is noted: cited from earlier work.
[1] abbreviates: LTKB DILIrank category, ref Chen 2016.
[2] abbreviates: binary DILI call, ref Chen 2016.
The mark [3] stands for this setting: binary in vivo human DILI call, ref Chen 2016.
Setting [4] is: human DILI, LTKB DILIrank category, ref Chen 2016.

For the molecule `CC(=O)[O-].CC(=O)[O-].[Ca+2]` [calcium acetate], under “in vivo”, the “DILI +VE (5-8), DILI -VE (-4)” value is reported as “-VE” and the DILI severity category result is “vNo-DILI-Concern”.

Consider `CCCCCOC(=O)Nc1nc(=O)n([C@@H]2O[C@H](C)[C@@H](O)[C@H]2O)cc1F` [capecitabine], for which, under setting [1], the DILI severity category entry is listed as “Ambiguous DILI-concern”. Further, the “DILI +VE (5-8), DILI -VE (-4)” value under setting [2] was “-VE”.

On to `CC1(C)S[C@@H]2[C@H](NC(=O)C(C(=O)O)c3ccccc3)C(=O)N2[C@H]1C(=O)O` (stereo partly drawn) [carbenicillin], for which, under setting [1], the DILI severity category entry was “vLess-DILI-Concern”.

Take `CN(C)CCOC(c1ccc(Cl)cc1)c1ccccn1` (stereo not drawn) [carbinoxamine]: under setting [1], the DILI severity category result is “vNo-DILI-Concern”. Also, the “DILI +VE (5-8), DILI -VE (-4)” value under setting [2] is listed as “-VE”.

Consider `CCCCC[C@](C)(O)/C=C/[C@@H]1[C@@H](C/C=C\CCCC(=O)O)[C@@H](O)C[C@H]1O` [carboprost tromethamine], for which the DILI severity category entry under setting [1] is recorded as “vNo-DILI-Concern”. Moreover, under setting [2], the “DILI +VE (5-8), DILI -VE (-4)” value is listed as “-VE”.

`COc1ccccc1OCCNCC(O)COc1cccc2[nH]c3ccccc3c12` (stereo not drawn) [carvedilol]: under setting [1], the DILI severity category result was “vLess-DILI-Concern”.

Turning to `CC[C@H](C)C[C@H](C)CCCCCCCCC(=O)N[C@H]1C[C@@H](O)[C@@H](NCCN)NC(=O)[C@@H]2[C@@H](O)CCN2C(=O)[C@H]([C@H](O)CCN)NC(=O)[C@H]([C@H](O)[C@@H](O)c2ccc(O)cc2)NC(=O)[C@@H]2C[C@@H](O)CN2C(=O)[C@H]([C@@H](C)O)NC1=O` [caspofungin], the DILI severity category result under setting [1] was “Ambiguous DILI-concern”. The “DILI +VE (5-8), DILI -VE (-4)” value under setting [2] is given as “-VE”.

On to `N[C@@H](C(=O)N[C@@H]1C(=O)N2C(C(=O)O)=C(Cl)CS[C@H]12)c1ccccc1` [cefaclor], for which, under setting [1], the DILI severity category result was “vLess-DILI-Concern”.

As to `CC1=C(C(=O)O)N2C(=O)[C@@H](NC(=O)[C@H](N)c3ccc(O)cc3)[C@H]2SC1` [cefadroxil], the DILI severity category result under setting [1] was “vLess-DILI-Concern”.

As for `Cc1nnc(SCC2=C(C(=O)O)N3C(=O)[C@@H](NC(=O)Cn4cnnn4)[C@H]3SC2)s1` [cefazolin], under “in vivo”, the “DILI +VE (5-8), DILI -VE (-4)” value is listed as “+VE” and the DILI severity category entry is recorded as “vLess-DILI-Concern”.

As for `C=CC1=C(C(=O)O)N2C(=O)[C@@H](NC(=O)/C(=N\O)c3csc(N)n3)[C@H]2SC1` [cefdinir], the DILI severity category result under setting [1] is given as “vLess-DILI-Concern”.

For `CO/N=C(\C(=O)N[C@@H]1C(=O)N2C(C(=O)O)=C(/C=C\c3scnc3C)CS[C@H]12)c1csc(N)n1` [cefditoren], the DILI severity category entry under setting [1] is on record as “Ambiguous DILI-concern”. Also, under setting [2], the “DILI +VE (5-8), DILI -VE (-4)” value was “-VE”.

As for `CO/N=C(\C(=O)N[C@@H]1C(=O)N2C(C(=O)[O-])=C(C[N+]3(C)CCCC3)CS[C@H]12)c1csc(N)n1` [cefepime], for the setting “in vivo”, the “DILI +VE (5-8), DILI -VE (-4)” value is reported as “+VE” and the DILI severity category entry is given as “vLess-DILI-Concern”.

With `CO[C@@]1(NC(=O)Cc2cccs2)C(=O)N2C(C(=O)O)=C(COC(N)=O)CS[C@@H]21` [cefoxitin], the DILI severity category result under setting [1] is “Ambiguous DILI-concern”. In addition, the “DILI +VE (5-8), DILI -VE (-4)” value under setting [2] is reported as “-VE”.

Regarding `COCC1=C(C(=O)O)N2C(=O)[C@@H](NC(=O)/C(=N\OC)c3csc(N)n3)[C@H]2SC1` [cefpodoxime], the DILI severity category result under setting [1] is reported as “Ambiguous DILI-concern”. In addition, the “DILI +VE (5-8), DILI -VE (-4)” value under setting [2] is “-VE”.

As for `CC=CC1=C(C(=O)O)N2C(=O)[C@@H](NC(=O)[C@H](N)c3ccc(O)cc3)[C@H]2SC1` [cefprozil], under “in vivo”, the “DILI +VE (5-8), DILI -VE (-4)” value is “+VE” and the DILI severity category entry was “vLess-DILI-Concern”.

Take `Nc1nc(/C(=C/CC(=O)O)C(=O)N[C@@H]2C(=O)N3C(C(=O)O)=CCS[C@H]23)cs1` [ceftibuten]: under setting [1], the DILI severity category entry is given as “Ambiguous DILI-concern”. Under setting [2], the “DILI +VE (5-8), DILI -VE (-4)” value is reported as “-VE”.

`CO/N=C(\C(=O)N[C@@H]1C(=O)N2C(C(=O)O)=CCS[C@H]12)c1csc(N)n1` [ceftizoxime]: the DILI severity category entry under setting [1] is given as “Ambiguous DILI-concern”. Under setting [2], the “DILI +VE (5-8), DILI -VE (-4)” value was “-VE”.

On to `CO/N=C(\C(=O)N[C@@H]1C(=O)N2C(C(=O)O)=C(COC(N)=O)CS[C@H]12)c1ccco1` [cefuroxime], for which, under setting [1], the DILI severity category entry was “vLess-DILI-Concern”.

As to `CC1=C(C(=O)O)N2C(=O)[C@@H](NC(=O)[C@H](N)C3=CCC=CC3)[C@H]2SC1` [cephradine], under setting [1], the DILI severity category entry is given as “Ambiguous DILI-concern”. Besides, under setting [2], the “DILI +VE (5-8), DILI -VE (-4)” value is recorded as “-VE”.

As for `CC(=O)N[C@H](Cc1ccc2ccccc2c1)C(=O)N[C@H](Cc1ccc(Cl)cc1)C(=O)N[C@H](Cc1cccnc1)C(=O)N[C@@H](CO)C(=O)N[C@@H](Cc1ccc(O)cc1)C(=O)N[C@H](CCCNC(N)=O)C(=O)N[C@@H](CC(C)C)C(=O)N[C@@H](CCCNC(=N)N)C(=O)N1CCC[C@H]1C(=O)N[C@H](C)C(N)=O` [cetrorelix] (Ac-[d2Nal][dPhe(4-Cl)][d3Pal]SY[dCit]LRP[dA]-NH2), the DILI severity category result under setting [1] is “Ambiguous DILI-concern”. Besides, the “DILI +VE (5-8), DILI -VE (-4)” value under setting [2] is “-VE”.

`CC1OC2(CS1)CN1CCC2CC1` (stereo not drawn) [cevimeline]: under setting [1], the DILI severity category result was “Ambiguous DILI-concern”. In addition, under setting [2], the “DILI +VE (5-8), DILI -VE (-4)” value is reported as “-VE”.

Take `CN1CCN(C(c2ccccc2)c2ccc(Cl)cc2)CC1` (stereo not drawn) [chlorcyclizine]: the DILI severity category result under setting [1] is listed as “vLess-DILI-Concern”.

In the case of `CNC1=Nc2ccc(Cl)cc2C(c2ccccc2)=[N+]([O-])C1` [chlordiazepoxide], under “in vivo”, the “DILI +VE (5-8), DILI -VE (-4)” value was “+VE” and the DILI severity category entry is given as “vLess-DILI-Concern”.

With `CN1C(=O)CCS(=O)(=O)C1c1ccc(Cl)cc1` (stereo not drawn) [chlormezanone], under “in vivo”, the “DILI +VE (5-8), DILI -VE (-4)” value is given as “+VE” and the DILI severity category entry is reported as “vMost-DILI-Concern”.

`NS(=O)(=O)c1cc(C2(O)NC(=O)c3ccccc32)ccc1Cl` (stereo not drawn) [chlorthalidone]: the DILI severity category result under setting [1] is “Ambiguous DILI-concern”. For the same molecule, the “DILI +VE (5-8), DILI -VE (-4)” value under setting [2] is on record as “-VE”.

Turning to `Nc1ccn(C[C@@H](CO)OCP(=O)(O)O)c(=O)n1` [cidofovir], the DILI severity category result under setting [1] is “Ambiguous DILI-concern”. Besides, under setting [2], the “DILI +VE (5-8), DILI -VE (-4)” value is “-VE”.

Consider `C[C@@H](NCCCc1cccc(C(F)(F)F)c1)c1cccc2ccccc12` [cinacalcet], for which the DILI severity category result under setting [1] is reported as “vNo-DILI-Concern”. Besides, under setting [2], the “DILI +VE (5-8), DILI -VE (-4)” value is “-VE”.

Turning to `COc1ccc(C[C@@H]2c3cc(OC)c(OC)cc3CC[N@+]2(C)CCC(=O)OCCCCCOC(=O)CC[N@@+]2(C)CCc3cc(OC)c(OC)cc3[C@H]2Cc2ccc(OC)c(OC)c2)cc1OC` [cisatracurium besylate], under setting [1], the DILI severity category entry is listed as “vNo-DILI-Concern”. The “DILI +VE (5-8), DILI -VE (-4)” value under setting [2] was “-VE”.

Consider `CCC[C@@H]1C[C@@H](C(=O)N[C@@H]([C@H]2O[C@H](SC)[C@H](OP(=O)(O)O)[C@@H](O)[C@H]2O)[C@H](C)Cl)N(C)C1` [clindamycin-2-phosphate], for which the DILI severity category result (in vivo) is recorded as “Ambiguous DILI-concern”.

In the case of `CCC[C@@H]1C[C@@H](C(=O)N[C@@H]([C@H]2O[C@H](SC)[C@H](O)[C@@H](O)[C@H]2O)[C@H](C)Cl)N(C)C1` [clindamycin], the DILI severity category entry (in vivo) is reported as “vLess-DILI-Concern”.

As to `Nc1nc(Cl)nc2c1ncn2[C@@H]1O[C@H](CO)[C@@H](O)[C@@H]1F` [clofarabine], the DILI severity category entry under setting [1] is reported as “Ambiguous DILI-concern”. The “DILI +VE (5-8), DILI -VE (-4)” value under setting [2] is given as “-VE”.

Take `CN(C)CCCC1c2ccccc2Nc2ccc(Cl)cc21` (stereo not drawn) [clomacran]: under setting [1], the DILI severity category entry is recorded as “vMost-DILI-Concern”.

Take `COc1ccc2c(C(=O)c3ccc(Cl)cc3)c(C)n(CC(=O)O)c2c1` [clometacin]: the DILI severity category entry under setting [1] is listed as “vMost-DILI-Concern”.

As to `CCN(CC)CCOc1ccc(C(=C(Cl)c2ccccc2)c2ccccc2)cc1` [clomiphene], the DILI severity category result under setting [1] was “vLess-DILI-Concern”.

Take `COC(=O)[C@H](c1ccccc1Cl)N1CCc2sccc2C1` [clopidogrel]: under setting [1], the DILI severity category result is given as “vLess-DILI-Concern”.

As to `O=C(O)C1N=C(c2ccccc2)c2cc(Cl)ccc2NC1=O` (stereo not drawn) [clorazepate], under setting [1], the DILI severity category result is listed as “Ambiguous DILI-concern”. Besides, the “DILI +VE (5-8), DILI -VE (-4)” value under setting [2] was “-VE”.

Regarding `COc1ccc2c3c1O[C@H]1[C@@H](O)C=C[C@H]4[C@@H](C2)N(C)CC[C@@]341` [codeine], for the setting “in vivo”, the “DILI +VE (5-8), DILI -VE (-4)” value is on record as “-VE” and the DILI severity category result was “vNo-DILI-Concern”.

`CC(=O)OCC(=O)[C@@]1(O)CC[C@H]2[C@@H]3CCC4=CC(=O)CC[C@]4(C)[C@H]3C(=O)C[C@@]21C` [cortisone acetate]: the “DILI +VE (5-8), DILI -VE (-4)” value under setting [3] was “-VE”. The DILI severity category result under setting [4] was “vNo-DILI-Concern”.

On to `[Cl][Cu][Cl]` [cupric chloride], for which, for the setting “in vivo”, the “DILI +VE (5-8), DILI -VE (-4)” value was “-VE” and the DILI severity category result is recorded as “vNo-DILI-Concern”.

Take `NCCS` [cysteamine]: under setting [3], the “DILI +VE (5-8), DILI -VE (-4)” value is recorded as “-VE”. The DILI severity category result under setting [4] is given as “Ambiguous DILI-concern”.

In the case of `CCCCCCCCCC(=O)N[C@@H](Cc1c[nH]c2ccccc12)C(=O)N[C@H](CC(N)=O)C(=O)N[C@@H](CC(=O)O)C(=O)N[C@@H]1C(=O)NCC(=O)N[C@@H](CCCN)C(=O)N[C@@H](CC(=O)O)C(=O)N[C@H](C)C(=O)N[C@@H](CC(=O)O)C(=O)NCC(=O)N[C@H](CO)C(=O)N[C@@H]([C@H](C)CC(=O)O)C(=O)N[C@@H](CC(=O)c2ccccc2N)C(=O)O[C@@H]1C` [daptomycin], the “DILI +VE (5-8), DILI -VE (-4)” value under setting [3] was “+VE”. Further, the DILI severity category entry under setting [4] is reported as “vLess-DILI-Concern”.

Consider `NC(=O)C(c1ccccc1)(c1ccccc1)[C@@H]1CCN(CCc2ccc3c(c2)CCO3)C1` [darifenacin], for which the “DILI +VE (5-8), DILI -VE (-4)” value under setting [3] is listed as “-VE”. The DILI severity category result under setting [4] is “vNo-DILI-Concern”.

Regarding `Nc1ncn([C@H]2C[C@H](O)[C@@H](CO)O2)c(=O)n1` [decitabine], the “DILI +VE (5-8), DILI -VE (-4)” value under setting [3] was “-VE”. For the same molecule, under setting [4], the DILI severity category entry is “Ambiguous DILI-concern”.
